Reference: patent publication US10808247B2, “Methods for treating neurological disorders using a synergistic small molecule and nucleic acids therapeutic approach” (Phio Pharmaceuticals Corp., priority 2015, dated 2020)

Experiments:
MnSOD [1] = test: MnSOD protein expression by immunoblot in neurons; assay type: cell-based; conditions: 24 h; for MnSOD expression by Western blot: NSC-34 cells; for MnSOD protein expression: mature primary neurons, SH-SY5Y cells and NSC-34 cells
Protocol: (§1) FIGS. 4A-4F. SYN1 and SYN2 increase the expression and activity of NF-κB target genes, such as MnSOD in neurons. […] A commercially available kit, modified to detect MnSOD activity in primary neurons, was used. Neurons were exposed to 3 mM SYN1 or 300 nM SYN2 for 24 h. […] TNF-α was included as a reference. FIGS. 4B, 4D and 4F show SYN1 and SYN2 increase MnSOD protein expression. Mature primary neurons (FIG. 4B), SH-SY5Y cells (FIG. 4D), and NSC-34 cells (FIG. 4F) were treated for 24 h with the compounds. Thereafter, cells were lysed, and proteins were extracted and subjected to SDS-PAGE. Immunoblots were then performed following the instructions of the antibody manufacturer. ECL was used for detection. […] The effect of TNF exposure is provided for reference. […] Primary cortical neurons at 6 D.I.V. were pretreated for 24 h with compounds and then challenged with 80 μM of H2O2. […] SYN1 at 3 μM inhibited cell death by 100%. […] The protection exceeded 60% and extended up to a concentration of 1 μM. […] NSC-34 cells were treated for 24 h with the compounds. Thereafter, cells were lysed, and cytosolic and nuclear fractions were separated. Subsequently, SDS-PAGE and immunoblots were performed. ECL was used for detection. […] The effect of TNF exposure was provided for reference. […] ANOVA+Bonferroni's.

HSP-dependent mRNAs = test: Cytoplasmic chaperone expression by qPCR in SH-5YSY; assay type: cell-based; conditions: 24 h treatment
Protocol: (§2) FIG. 5. Effect of SYN1 on cytoplasmic chaperones expression. The expression of the genes listed in the graph was assessed using qPCR in SH-5YSY after 24 h treatment with SYN1.

HSP27 = test: as above; assay type: cell-based; conditions: 24 h treatment
Protocol: as §2

HSP70-2 = test: as above; assay type: cell-based; conditions: 24 h treatment
Protocol: as §2

Primary cortical neurons = test: Neurotoxicity induced by H2O2 in primary cortical neurons; assay type: cell-based; conditions: 24 h pretreatment, 80 μM H2O2
Protocol: as §1

MnSOD [2] = test: MnSOD activity in primary neurons (modified commercial kit); assay type: cell-based; conditions: 3 mM SYN1 or 300 nM SYN2 for 24 h
Protocol: as §1

SOD-1-G93A ALS mouse = test: SOD-1-G93A ALS mouse: survival, weight, neurologic score; assay type: in vivo; conditions: for survival (Kaplan-Meier analysis): administration at the time of onset; for body weight lost / inhibition of body weight loss: at 120 days; for inhibition of body weight loss: versus control animals; for lifespan extension at 50% survival: male mice, 25 mg/kg IP daily from day 96
Protocol: FIGS. 6A-6D. Effect of SYN1 and SYN2 in SOD-1-G93A ALS mouse. The animals were received at day 70 and kept until day 96, at which time daily IP treatment was started with 25 mg/kg of the compounds. Weight and standard neurologic scores (N.S.) were assessed on alternate days. A N.S. of 4 triggered the exception (euthanized accordingly to humane practices). […] Data in FIGS. 6A and 6B document a 66% and an 81% lifespan extension for SYN1 and SYN2, respectively, at 50% survival in male mice. […] The average weight within the groups before the treatment was similar (inset to FIG. 6C). However, at 120 days, control animals lost on average 12% of the body weight (FIG. 6C). […] Although progression from N.S. 0 to 1 was delayed only by SYN1 (2 day delay, +30%), progression to higher N.S. was delayed by both agents (FIG. 6D). […] Control animals reached N.S.=2 at 30 days on average; treated animals reached N.S.=2 at day 46 or later on average. *P<0.05; **P<0.01.

NF-κB p65 = NF-κB p65 nuclear translocation in NSC-34 immortalized motoneurons, immunoblot; assay type: cell-based; conditions: NSC-34 cells, 24 h
Protocol: as §1

`O=C(/C=C/Nc1ccccc1Br)c1ccc2c(c1)OCO2` [SYN1] was tested, and the “MnSOD expression by Western blot” value (MnSOD [1]) was “increased expression of MnSOD”, the MnSOD protein expression (MnSOD [1]) was “increased MnSOD expression in all three kinds of neurons” and the “HSP-dependent mRNAs” value (HSP-dependent mRNAs) was “significantly increased”. The HSP27 gene expression (HSP27) was “significantly up-regulated”, the HSP70-2 gene expression (HSP70-2) was “significantly up-regulated” and the “inhibition of cell death” value (Primary cortical neurons; 3 μM) was 100%. For the same compound, the MnSOD activity (MnSOD [2]) was “significantly increased”, the “delay of progression from N.S. 0 to 1” value (SOD-1-G93A ALS mouse; 25 mg/kg IP daily) was 2 days and the “delay of progression from N.S. 0 to 1, relative” value (SOD-1-G93A ALS mouse; 25 mg/kg IP daily) was 30%. The “time spent at N.S.1” value (SOD-1-G93A ALS mouse; 25 mg/kg IP daily) was “increased the time spent at N.S.1”, the “survival (Kaplan-Meier analysis)” value (SOD-1-G93A ALS mouse; 25 mg/kg IP daily) was “significantly extended survival” and the body weight lost (SOD-1-G93A ALS mouse; 25 mg/kg IP daily) was 3%. For the same compound, the “inhibition of body weight loss” value (SOD-1-G93A ALS mouse) was 75%, the “lifespan extension at 50% survival” value (SOD-1-G93A ALS mouse) was 66% and the p65 nuclear presence (NF-κB p65) was “increased p65 nuclear presence”.

`Cc1cccnc1Nc1nc(-c2ccccn2)cs1` [SYN2] was tested, and the “MnSOD expression by Western blot” value (MnSOD [1]) was “increased expression of MnSOD”, the MnSOD protein expression (MnSOD [1]) was “increased MnSOD expression in all three kinds of neurons” and the “concentration of peak effect” value (Primary cortical neurons) was 300 nM. The “concentration up to which protection extended” value (Primary cortical neurons) was no more than 1 µM, the protection (Primary cortical neurons) was “exceeded 60%” and the MnSOD activity (MnSOD [2]) was “significantly increased”. The “time spent at N.S.1” value (SOD-1-G93A ALS mouse; 25 mg/kg IP daily) was “increased the time spent at N.S.1”, the “survival (Kaplan-Meier analysis)” value (SOD-1-G93A ALS mouse; 25 mg/kg IP daily) was “significantly extended survival” and the body weight lost (SOD-1-G93A ALS mouse; 25 mg/kg IP daily) was 4%. For the same compound, the “inhibition of body weight loss” value (SOD-1-G93A ALS mouse) was 65%, the “lifespan extension at 50% survival” value (SOD-1-G93A ALS mouse) was 81% and the p65 nuclear presence (NF-κB p65) was “increased p65 nuclear presence”.
